Experimental data reported in PubChem BioAssay AID1963958 (Molecular Pharmacology Branch, DTP, NCI, 2024).

System: MDA-MB-231 multicell spheroids, viability
Assay: Anticancer human tumor MDA-MB-231 cell line growth inhibition [PI3K];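 note: spheroids exposed to agents for seven days before reading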;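 for viability, T/C: percent of vehicle control luminescence with DMSO treated spheroids as 100%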
Details: for IC50: curve of first compound; for viability, T/C: stronger effect = lower value
Method in brief: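 High-throughput combination screen: PI3K inhibitors crossed with targeted small molecules on complex spheroids of tumor cells, HUVEC and MSCs at 37 degrees C, 5% CO2. Top concentration was at or near clinical Cmax (otherwise 10 microM), with half-log decrements.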

[1] = second compound 0.0316 µM, first compound 0.0316 µM
[2] = second compound 0.0316 µM, first compound 0.1 µM
[3] = second compound 0.0316 µM, first compound 0.316 µM
[4] = second compound 0.0316 µM, first compound 1 µM
[5] = second compound 0.0316 µM, first compound 3.16 µM
[6] = second compound 0.0316 µM, first compound 10 µM
[7] = second compound 0.1 µM, first compound 0.0316 µM
[8] = second compound 0.1 µM, first compound 0.1 µM
[9] = second compound 0.1 µM, first compound 0.316 µM
[10] = second compound 0.1 µM, first compound 1 µM
[11] = second compound 0.1 µM, first compound 3.16 µM
[12] = second compound 0.1 µM, first compound 10 µM
[13] = second compound 0.316 µM, first compound 0.0316 µM
[14] = second compound 0.316 µM, first compound 0.1 µM
[15] = second compound 0.316 µM, first compound 0.316 µM
[16] = second compound 0.316 µM, first compound 1 µM
[17] = second compound 0.316 µM, first compound 3.16 µM
[18] = second compound 0.316 µM, first compound 10 µM
[19] = second compound 1 µM, first compound 0.0316 µM
[20] = second compound 1 µM, first compound 0.1 µM
[21] = second compound 1 µM, first compound 0.316 µM
[22] = second compound 1 µM, first compound 1 µM
[23] = second compound 1 µM, first compound 3.16 µM
[24] = second compound 1 µM, first compound 10 µM
[25] = second compound 3.16 µM, first compound 0.0316 µM
[26] = second compound 3.16 µM, first compound 0.1 µM
[27] = second compound 3.16 µM, first compound 0.316 µM
[28] = second compound 3.16 µM, first compound 1 µM
[29] = second compound 3.16 µM, first compound 3.16 µM
[30] = second compound 3.16 µM, first compound 10 µM
[31] = second compound 10 µM, first compound 0.0316 µM
[32] = second compound 10 µM, first compound 0.1 µM
[33] = second compound 10 µM, first compound 0.316 µM
[34] = second compound 10 µM, first compound 1 µM
[35] = second compound 10 µM, first compound 3.16 µM
[36] = second compound 10 µM, first compound 10 µM

Question: How did the IC50 (second compound 0.0316 µM) turn out when CC(C)NCC(C(=O)N1CCN(c2ncnc3c2C(C)CC3O)CC1)c1ccc(Cl)cc1 (centres undefined) + Cc1nc(NC(=O)N2CCCC2C(N)=O)sc1-c1ccnc(C(C)(C)C(F)(F)F)c1 was run?
Answer: 7.63 µM

Question: What about the IC50 (second compound 0.1 µM) of the same molecule?
Answer: 6.69 µM

Question: And the IC50 (second compound 0.316 µM)?
Answer: 4.73 µM

Question: And the IC50 (second compound 1 µM)?
Answer: 4.4 µM

Question: What about the IC50 (second compound 3.16 µM) of the same molecule?
Answer: 4.09 µM

Question: What about the IC50 (second compound 10 µM) of the same molecule?
Answer: 3.7 µM

Question: What about the viability, T/C [1] of the same molecule?
Answer: 95.8%

Question: And the viability, T/C [2]?
Answer: 95.9%

Question: What about the viability, T/C [3] of the same molecule?
Answer: 82.7%

Question: What about the viability, T/C [4] of the same molecule?
Answer: 83.5%

Question: What about the viability, T/C [5] of the same molecule?
Answer: 66.9%

Question: What about the viability, T/C [6] of the same molecule?
Answer: 44.2%

Question: What about the viability, T/C [7] of the same molecule?
Answer: 84.8%

Question: And the viability, T/C [8]?
Answer: 79.9%

Question: What about the viability, T/C [9] of the same molecule?
Answer: 71.4%

Question: And the viability, T/C [10]?
Answer: 73.5%

Question: What about the viability, T/C [11] of the same molecule?
Answer: 64%

Question: What about the viability, T/C [12] of the same molecule?
Answer: 42.5%

Question: What about the viability, T/C [13] of the same molecule?
Answer: 72.6%

Question: And the viability, T/C [14]?
Answer: 77.8%

Question: And the viability, T/C [15]?
Answer: 73.4%

Question: What about the viability, T/C [16] of the same molecule?
Answer: 63.4%

Question: What about the viability, T/C [17] of the same molecule?
Answer: 55%

Question: What about the viability, T/C [18] of the same molecule?
Answer: 42.6%

Question: And the viability, T/C [19]?
Answer: 70.7%

Question: What about the viability, T/C [20] of the same molecule?
Answer: 66.6%

Question: What about the viability, T/C [21] of the same molecule?
Answer: 63.7%

Question: What about the viability, T/C [22] of the same molecule?
Answer: 60.4%

Question: What about the viability, T/C [23] of the same molecule?
Answer: 55.6%

Question: What about the viability, T/C [24] of the same molecule?
Answer: 40.4%

Question: And the viability, T/C [25]?
Answer: 73.7%

Question: What about the viability, T/C [26] of the same molecule?
Answer: 66.4%

Question: And the viability, T/C [27]?
Answer: 64.3%

Question: And the viability, T/C [28]?
Answer: 60.6%

Question: And the viability, T/C [29]?
Answer: 54.3%

Question: And the viability, T/C [30]?
Answer: 40.4%

Question: What about the viability, T/C [31] of the same molecule?
Answer: 68.7%

Question: What about the viability, T/C [32] of the same molecule?
Answer: 65.5%

Question: And the viability, T/C [33]?
Answer: 61.3%

Question: And the viability, T/C [34]?
Answer: 59.9%

Question: What about the viability, T/C [35] of the same molecule?
Answer: 53.4%

Question: What about the viability, T/C [36] of the same molecule?
Answer: 37.8%

Question: Which results are given for CC1(C)CCC(CN2CCN(c3ccc(C(=O)NS(=O)(=O)c4ccc(NCC5CCOCC5)c([N+](=O)[O-])c4)c(Oc4cnc5[nH]ccc5c4)c3)CC2)=C(c2ccc(Cl)cc2)C1 + Cc1nc(NC(=O)N2CCCC2C(N)=O)sc1-c1ccnc(C(C)(C)C(F)(F)F)c1?
Answer: IC50 (second compound 0.0316 µM): 6.18 µM; IC50 (second compound 0.1 µM): 5.98 µM; IC50 (second compound 0.316 µM): 5.8 µM; IC50 (second compound 1 µM): 4.92 µM; IC50 (second compound 3.16 µM): 4.36 µM; IC50 (second compound 10 µM): 4.29 µM; viability, T/C [1]: 93.7%; viability, T/C [2]: 101%; viability, T/C [3]: 96%; viability, T/C [4]: 101%; viability, T/C [5]: 107%; viability, T/C [6]: 14.4%; viability, T/C [7]: 89.2%; viability, T/C [8]: 90.3%; viability, T/C [9]: 87.7%; viability, T/C [10]: 90.8%; viability, T/C [11]: 97%; viability, T/C [12]: 16.8%; viability, T/C [13]: 77.9%; viability, T/C [14]: 79.6%; viability, T/C [15]: 79.2%; viability, T/C [16]: 79.6%; viability, T/C [17]: 83.5%; viability, T/C [18]: 22.9%; viability, T/C [19]: 72.5%; viability, T/C [20]: 73.4%; viability, T/C [21]: 71.7%; viability, T/C [22]: 73.4%; viability, T/C [23]: 74%; viability, T/C [24]: 13.1%; viability, T/C [25]: 69.8%; viability, T/C [26]: 65.9%; viability, T/C [27]: 67.7%; viability, T/C [28]: 72.7%; viability, T/C [29]: 66%; viability, T/C [30]: 8.11%; viability, T/C [31]: 65.8%; viability, T/C [32]: 67.4%; viability, T/C [33]: 58.5%; viability, T/C [34]: 63.1%; viability, T/C [35]: 62%; viability, T/C [36]: 16.7%
